The text below walks through data of patent publication US20250026781A1, “Prodrugs of Neurosteroid Analogs and Uses Thereof” (Emory University, priority 2021, published 2025).

Counter-ions that a name gives are not always drawn.

This data set is described as follows: Plasma stability assay in human plasma (LC-MS/MS). Format: in vitro ADME. The conditions noted are these: 37° C., 3 μM test compound, time points 0-240 min, read-out: Plasma t1/2 (converted). On the procedure: Procaine and procainamide were purchased from Sigma Aldrich. HPLC-grade acetonitrile, water, methanol, and formic acid were purchased from Fisher Scientific. Human plasma (Cat. No. […]2N) was obtained from BIOIVT, and PBS (1× Dulbecco's, pH 7.4) from Thermo Fisher Scientific.
Test compounds were dissolved in DMSO to make a stock solution of 10 mM and then diluted to 500 μM in buffer or 70% methanol. Human plasma was thawed at ambient temperature and aliquoted (994.0 μL) to a 1.5 mL Eppendorf tube in duplicates (vials A and B) for each compound. The plasma was incubated at 37° C. for 10 min in an incubator shaker at 150 RPM; the reaction was initiated by addition of the test compound (6.0 μL), followed by vortex mixing. The total reaction volume was 1000 μL, the final organic solvent concentrations were […] (when 70% methanol was used for dilution) and 0.03% DMSO, and the final concentration of the test compound was 3 μM. The spiked plasma samples were incubated at 37° C. for 4 h. The reactions were terminated at time point 0, 15, 30, 60, 120, 180, and 240 min by taking a 100 μL aliquot from the test incubation mixture and immediately quenching it by adding it into ice-cold acetonitrile or methanol (150 μL) containing 2 μM internal standard (ISTD), followed by vortex mixing. The ISTD was d5-7-ethoxy coumarin. The samples were then centrifuged at 15000 RPM for 25 min at 4° C., and the supernatant was transferred to an LC-MS vial for analysis by LC-MS/MS. Each time point was tested in duplicates followed by in-between blank washes to avoid carryover and to equilibrate the column.
Procaine (poor plasma stability) and procainamide (good plasma stability) were used as controls at the same concentration as that of the test compound. These controls were run in parallel to test the assay's competency. Matrix blank was prepared by adding acetonitrile or methanol containing ISTD to plasma samples without any of the test or control compounds. Also, an additional control sample was made to simply monitor compound degradation in PBS buffer.
Below is a summary of samples prepared for a given test compound in a typical plasma stability assay: • Test compound (TC): 994 μL human plasma+6.0 μL TC (Vial A) • 994 μL human plasma+6.0 μL TC (Vial B) • Control: 596 μL human plasma+3.6 μL (procaine+procainamide) • Blank matrix: 500 μL PBS buffer+100 μL human plasma • Additional control: 142 μL PBS buffer+0.9 μL TC • Quenching mixture: 150 μL acetonitrile or methanol with ISTD (2 μM) • Final volume: 250 μL (100 μL from the incubation mixture+150 μL quenching mixture; final ISTD conc.: 1.2 μM)
LC-MS/MS analysis was performed using Agilent 1260 Infinity II HPLC, coupled with an Agilent G6460 triple quadrupole mass spectrometer (Agilent Technologies, USA). The data were acquired and processed using the Agilent 6460 Quantitative Analysis data processing software.
Reverse-phase HPLC separation for each compound was achieved on an Agilent InfinityLab Poroshell 120 C18 column (2.1×50 mm, 2.7 μm) with a mobile phase composed of methanol/water with 0.1% formic acid or acetonitrile/water with 0.1% formic acid at a flow rate of 0.5 mL/min. Each method was developed in the presence of the ISTD. The column temperature was maintained at 40° C. The detection was operated using the Agilent Jet-Stream electrospray positive ionization under the multiple reaction monitoring (MRM) mode. The mass spec conditions were as follows: dwell time 100 ms; gas flow 10 L/min; nebulizer pressure 45 psi; delta EMV 200 V.
Plots of time (x-axis) vs. the natural logarithm of percent parent remaining (y-axis) were subsequently constructed to determine the slope. Finally, the plasma stability was evaluated using the following equation: […]

For `CNCCN(C)C(=O)O/N=C(\C)[C@H]1CC[C@H]2[C@@H]3CCC4C[C@H](O)CC[C@]4(C)[C@H]3CC[C@]12C` (stereo partly drawn) [12c, (E)-1-((3R,8R,9S,10S,13S,14S,17S)-3-hydroxy-10,13-dimethylhexadecahydro-1H-cyclopenta[a]phenanthren-17-yl)ethan-1-one O-(methyl (2-(methylamino)ethyl)carbamoyl)oxime trifluoroacetate], the half-life at 3 μM is 1.39 h. To `C/C(=N\OC(=O)N(C)C[C@@H]1CCCN1)[C@H]1CC[C@H]2[C@@H]3CC=C4C[C@@H](O)CC[C@]4(C)[C@H]3CC[C@]12C` [13b, (E)-1-((3S,8S,9S,10R,13S,14S,17S)-3-hydroxy-10,13-dimethyl-2,3,4,7,8,9,10,11,12,13,14,15,16,17-tetradecahydro-1H-cyclopenta[a]phenanthren-17-yl)ethan-1-one O-(methyl(((S)-pyrrolidin-2-yl)methyl)carbamoyl)oxime trifluoroacetate] belongs under 0.1 h; to `CNCCN(C)C(=O)O/N=C(\C)[C@H]1CC[C@H]2[C@@H]3CCC4C[C@@H](O)CC[C@]4(C)[C@H]3CC[C@]12C` (stereo partly drawn) [12a, (E)-1-((3S,8R,9S,10S,13S,14S,17S)-3-hydroxy-10,13-dimethylhexadecahydro-1H-cyclopenta[a]phenanthren-17-yl)ethan-1-one O-(methyl (2-(methylamino)ethyl)carbamoyl) oxime trifluoroacetate], 1.45 h. Turning to `CNCCN(C)C(=O)O/N=C(\C)[C@H]1CC[C@H]2[C@@H]3CC=C4C[C@@H](O)CC[C@]4(C)[C@H]3CC[C@]12C` [12b, (E)-1-((3S,8S,9S,10R,13S,14S,17S)-3-hydroxy-10,13-dimethyl-2,3,4,7,8,9,10,11,12,13,14,15,16,17-tetradecahydro-1H-cyclopenta[a]phenanthren-17-yl)ethan-1-one O-(methyl (2-(methylamino)ethyl)carbamoyl)oxime trifluoroacetate], the half-life at 3 μM is 1.23 h.

For the compound `C/C(=N\OC(=O)N(C)C[C@@H]1CCCN1)[C@H]1CC[C@H]2[C@@H]3CCC4C[C@@H](O)CC[C@]4(C)[C@H]3CC[C@]12C` (stereo partly drawn) [13a, (E)-1-((3S,8R,9S,10S,13S,14S,17S)-3-hydroxy-10,13-dimethylhexadecahydro-1H-cyclopenta[a]phenanthren-17-yl)ethan-1-one O-(methyl(((S)-pyrrolidin-2-yl)methyl)carbamoyl)oxime trifluoroacetate], the half-life at 3 μM is under 0.1 h. Consider `C/C(=N\OC(=O)N(C)C[C@@H]1CCCN1)[C@H]1CC[C@H]2[C@@H]3CCC4C[C@H](O)CC[C@]4(C)[C@H]3CC[C@]12C` (stereo partly drawn) [13c, (E)-1-((3R,8R,9S,10S,13S,14S,17S)-3-hydroxy-10,13-dimethylhexadecahydro-1H-cyclopenta[a]phenanthren-17-yl)ethan-1-one O-(methyl(((S)-pyrrolidin-2-yl)methyl)carbamoyl)oxime trifluoroacetate], for which the half-life at 3 μM was under 0.1 h.
